Like-named read-outs stand apart in the source and are kept apart here.
Legend:
[1] = target: T1, HIV-1 RT (Human immunodeficiency virus type 1 group M subtype B, UniProt P03366); test: Polymerase (DNA) extension assay with purified recombinant HIV-1 RT; type: biochemical
T1 construct: The expression and purification of HIV-1 RT and the polymerase assays were done as previously described; made in house
Method: FIG. 15. In vitro DNA extension using purified, recombinant HIV-1 RT, with varying amounts of C4′-methyl-2-deoxyadenosinetriphosphate and either (A) a DNA template or (B) and RNA template. […] Bands in the lane containing equimolar amounts of ddATP and dATP correspond to pausing events at the site of incorporation of the nuclosidetriphosphate analog.
The expression and purification of HIV-1 RT and the polymerase assays were done as previously described. For the extension assays, 7.0µl of a […] of synthetic DNA oligonucleotide (5′-[…]-3′ (SEQ ID NO:1); Biosource, CA) was 5′ end-labeled, then annealed to an excess of either a DNA template (5′-[…]-3′ (SEQ ID NO:2)) or an RNA template (5′-[…]-3′ (SEQ ID NO:3)). The A residue is the first nucleotide past the 3′ end of the primer. The annealed template-primer (T/P) was suspended in a final concentration of 25.0 mM Tris (pH 8.0), 75 mM KCl, 8.0 mM MgCl2, 100.0µg/ml BSA, 10.0 mM CHAPS, and 10.0µM each of dCTP, dGTP, and TTP. For the RNA template reactions, the mixture was also supplemented with 1 U/µl of SuperAsin (Ambion). The reaction buffer was aliquoted to individual tubes, then supplemented with a total of 10.0µM dATP and/or adenosine triphosphate analog (as described in the figure legend). The reactions were initiated by the addition of 1.0µg RT and the reaction was incubated at 37° C. for the various indicated time intervals. Reactions were stopped by the addition of EDTA and the reactions precipitated by the addition of isopropyl alcohol. The products were resuspended in formamide gel loading buffer II (Ambion), heated at 70° for 5 min to denature the products, and fractionated on a 15% polyacrylamide sequencing gel.

[2] = tested on: HIV-1 vectors (wild-type); type: cell-based
[3] = tested on: HIV-1 AZT-R; type: cell-based
[4] = tested on: HIV-1 SSGR+215; type: cell-based
[5] = tested on: HIV-1 Q151M complex; type: cell-based
[6] = tested on: HIV-1 viral DNA synthesis (reverse transcriptase); test: Quantitative PCR of viral DNA from infected HOS cells; type: cell-based; details: viral DNA collected 2, 4, 6 and 24 hours post-infection
From the text: FIG. 5 is a schematic illustrating the steps of HIV-1 viral DNA synthesis. Viral DNA was isolated from infections over time and assayed by quantitative PCR to determine the amount of viral DNA produced corresponding to various points of DNA synthesis. The regions targeted by our PCR primers and probes are indicated and correspond to: initiation (RU5), minus strand transfer (U3), full length viral DNA (gag), and plus strand transfer (corresponding to second strand synthesis).
The effects of the target compounds on viral DNA production were determined by quantitative PCR. 293 cells were transfected as above and transfections were washed with PBS 8 hours post-transfection and fresh medium added. The transfection wash step was repeated 24 hours post-transfection and fresh medium was added. On the day prior to infection, HOS cells were plated at 2×10^5 cells on to 60 mm plates. Virus-containing supernatants were harvested at 48 hours as above and treated with 20 U/mL of RNase-free DNase I (Roche Applied Science, Indianapolis, Ind.) and 30 U/mL of DNase Turbo (Ambion, Foster City, Calif.). Cells were pre-incubated with the target compounds for 3 h. For each target compound, the treated virus-containing supernatants were concentrated to 7.5 mL, and infections carried out by adding 1.75 mL each to 4 plates of HOS cells. Cells were harvested at 2, 4, 6, and 24 hour intervals and the viral DNA purified using the Qiagen EZ1 DNA tissue kit (Valencia, Calif.). Quantitative PCR (qPCR) was used to determine quantities of DNA corresponding to various steps along the viral DNA synthesis pathway. qPCR primers and probes used were as previously described. (Julias, J. G., Ferris, A. L., Boyer, P. L. and Hughes, S. H. (2001) J. Virol. 75, 6537-46.).
In order to determine that the compounds are targeting HIV-1 reverse transcriptase in the cell based assays, viral DNA was isolated from infections over time and assayed by quantitative PCR to determine the amount of viral DNA produced corresponding to various points of DNA synthesis (FIG. 5). The regions targeted by our PCR primers and probes correspond to: initiation (RU5), minus strand transfer (U3), full length viral DNA (gag), and plus strand transfer (corresponding to the initiation of second strand synthesis).

[7] = tested on: HIV-1; type: cell-based
[8] = tested on: MT4 cells; details: work from Ohuri and others; cited from earlier work
[9] = tested on: HIV-1 M184V variant; type: cell-based; details: HOS cells, single-cycle infectivity assay
[10] = tested on: NRTI-resistant HIV-1, including the M184V variant; details: infected MT-4 cells, Ohrui 2006, Ohuri 2007, Kawamoto 2008, cited from earlier work
[11] = tested on: MT-4 cells; details: previously reported; cited from earlier work
[12] = tested on: HOS cells

In the case of `C[C@]1(COP(=O)(O)OP(=O)(O)OP(=O)(O)O)O[C@@H](n2cnc3c(N)ncnc32)C[C@@H]1O` [C4′-methyl-2-dexoyadenosinetriphosphate], the chain termination ([1]; longer time points, extended DNA products observed) is reported as “does not act as a chain terminator”, the “competition with normal nucleosides” value ([1]; mixtures of ATP and the triphosphate) is reported as “able to compete with normal nucleosides during DNA synthesis” and the “effect of triphosphate incorporation on DNA synthesis” value ([1]; short time points, DNA or RNA template) is reported as “pausing during DNA synthesis at the point of incorporation”.
With `C[C@]1(CO)O[C@@H](n2cnc3c(N)ncnc32)C[C@@H]1O` [C4′Me-2-dA, C4′-methyl-2-deoxyadenosine] the EC50 ([2]; read-out: EC50, relative infectivity of HIV-1 vectors) was 48 nM, the “inhibition of NRTI resistance mutant AZT-R” value [3] was “inhibitory” and the “inhibition of NRTI resistance mutant SSGR+215” value [4] was “inhibitory”. For the same compound, the “inhibition of NRTI resistance mutant Q151M complex” value [5] was “inhibitory”, the “inhibition of DNA synthesis compared with AZT” value [6] was “as well as or better than AZT” and the “late stage viral DNA synthesis (gag and 2nd Strand Transfer)” value [6] was “significantly diminished”. For the same compound, the “effectiveness in TZM-bl cells compared with HOS cells” value [7] was “equally as effective” and the “cytotoxicity in MT4 cell killing assays” value [8] was “cytotoxic”.
In the case of `C#C[C@]1(CO)O[C@@H](n2cnc3c(N)nc(F)nc32)C[C@@H]1O` [C4′-ethynl-deoxy-2-fluoro-adenosine, C4′-ethynl-deoxy-2-fluoroadenosine], the “efficacy against WT versus C4′-methyl- and -ethyl-2-deoxyadenosine” value [2] is listed as “slightly improved efficacies against WT”, the “increase in EC50 values, M184V variant over wild-type” value [9] is listed as 2 fold and the “effectiveness against HIV-1 in MT-4 cells” value [10] is listed as “effective compound against NRTI-resistant HIV-1, including the M184V variant”. The “effectiveness against HIV-1 in MT-4 cells” value ([10]; listed as C4′-ethynl-deoxy-2-fluoroadenosine) was “effective against the wild-type and the M184V reverse transcriptase variant” and the “cytotoxicity in MT-4 cells” value [11] was “decreased cytotoxicity”.
For `CCC1(CO)OC(n2cnc3c(N)ncnc32)CC1O` (stereo not drawn) [C4′Et-2-dA, 5-(6-Amino-purin-9-yl)-2-ethyl-2-hydroxymethyl-tetrahydro-furan-3-ol], the “inhibition of NRTI resistance mutant AZT-R” value [3] was “inhibitory”, the “increase in the EC50 value, AZT-R variant over wild-type” value ([3]; HOS cells) was 3.9 fold and the “inhibition of NRTI resistance mutant SSGR+215” value [4] was “inhibitory”. For the same compound, the “inhibition of NRTI resistance mutant Q151M complex” value [5] was “inhibitory”, the “inhibition of DNA synthesis compared with AZT” value [6] was “as well as or better than AZT” and the “late stage viral DNA synthesis (gag and 2nd Strand Transfer)” value [6] was “significantly diminished”. The “effectiveness in TZM-bl cells compared with HOS cells” value ([7]; TZM-bl cells) was “equally as effective” and the “selectivity index (CC50 to EC50 ratio)” value [12] was “greater than 140”.

— patent US8513214B2, “C4′-substituted-2-deoxyadenosine analogs and methods of treating HIV” (The United States of America as Represented by the …, priority 2007, dated 2013)
